According to US7001735B2, “Glucose transporter/sensor protein and uses thereof” (Albert Einstein College of Medicine of Yeshiva University, priority 2000, dated 2006):

Tests used:
[1] = test system: GLUTx; experiment: Immunocytochemical localisation of GLUTx in insulin-stimulated MTLn3 cells; format: cell-based, rat; details: insulin 500 nM, 1 h, basal state perinuclear Golgi region, data not shown
Description: (§1) Immunohistochemistry was performed according to protocols provided by the Dako LSAB (labeled streptoavidin biotin reagents) and Dako EnVision+System (peroxidase, DAB) kits. However, some modifications were made. In brief, tissue on a slide was deparaffinized in xylene, and rehydrated in water. For cells that were processed, the slides or coverslips containing the cells were fixed in 4% paraformaldehyde for 1 h, then washed 4 times in buffered solution (TBS). The slides were placed in 3% H2O2 for 15 min in a 37° C. water bath to quench endogenous peroxidase activity. Epitope retrieval in paraffin-embedded tissue was achieved by heating the slides to 95° C. in a pre-heated citric acid solution (0.01 M citric acid, 0.01 M sodium citrate; pH 6.0). This temperature was maintained for 15 min in a microwave on high power or in a steam bath. The slides then were cooled. At this point, processing was started for the slides containing fixed cells.
(§2) Next, the primary antibody to GLUTx was applied to the slides for 30 min at room temperature (RT). Slides were rinsed in TBS 3 times for 5 min. The slides then were incubated with secondary antibody, as provided in the kit, for 15–20 min at RT. The slides were rinsed well with PBS, and the tertiary reagent (Strep-Avidin or HRP-labeled EnVision polymer) was applied for 15–20 min at RT. […]

[2] = test system: GLUTx; experiment: Immunocytochemical localisation of GLUTx in insulin-stimulated MTC cells; format: cell-based, rat; details: insulin 500 nM, 1 h, basal state mainly perinuclear Golgi region, data not shown
Description: as §1, §2

Substance: insulin: hormone used to stimulate the cells (500 nM for 1 h)
- distribution of GLUTx (light microscopy) [1]: also associated with the cell membrane
- distribution of GLUTx (light microscopy) [2]: localized also on the cell membrane
